In US20260266804A1, “MODEL FOR ANALYZING INFLAMMATION AND USES THEREOF” (Technion Research & Development Foundation Limited, priority 2022, published 2026):
“Also recorded” adds a separate entry of the source.

Tests used:
Caco-2 cells = test: SNAP treatment of Caco2 cells, IL-8 mRNA by qRT-PCR; type: cell-based, human; conditions: SNAP two sequential doses, 22 hours
Method: (§1) Day before SNAP (Sigma) treatment, Caco2 cells were cultured in working medium with MEM (Sigma) supplemented with 20% heat inactivated FCS (Biological Industries), ferric ammonium citrate (Sigma), non-essential amino acids (Gibco), sodium pyruvate (Gibco), L-glutamine (Biological Industries) and Pen.-strep. (Biological Industries) in an oxygen modified incubator (6% O2) at 37° C. and 5% CO2.
(§2) SNAP was added to the cells for 22 hours in two sequential doses 1 mM each. First dose was added for 6 hours, 20% of the medium was then collected and replaced with working medium containing 5 mM SNAP for additional incubation of […].
(§3) RNA was extracted using the Trizol reagent (Invitrogen). Cells were harvested directly with Trizol, whereas tissues were first ground in liquid-N2 cooled mortars then incubated with Trizol following manufacturer's instructions. Isolated RNA samples were submitted to DNase treatment using DNase I recombinant, RNase-free kit (Roche). cDNA was prepared using cDNA Reverse Transcription Kit (Quanta biosciences), and the RT-PCRs were performed using SYBR master mix (Applied Biosystems). The delta Ct method was used to calculate a relative expression of the target gene in comparison to topoisomerase 1 for epithelial cells and ubiquitin for macrophage genes.

Caco2 cells = test: SNAP treatment of 55Fe labeled Caco2 cells, CPM in cells and medium; type: cell-based, human; conditions: SNAP induced Caco2 cells
Method: as §1, §2
Cells were given medium containing transferrin loaded with labeled iron. First labeled Ferric nitrilotriacetate (Fe-(NTA)2) was prepared, by mixing 5 parts of […] (pH=3) in 0.9% NaCl, with 4 parts of 100 mM of ferric chloride solution (FeCl3) in 0.1M HCl and one part of ^55Fe labeled ferric chloride solution (^55FeCl3). The mixture was incubated for 30 minutes at RT. Next, 125 parts of 1 mM human Apotransferrin (Kamada) solution in HBS was mixed with 12.5 parts of NaHCO3 and 10 parts of the labeled Ferric nitrilotriacetate (50 mM). The mixture was then added to the growth medium, 147.5 ul of labeled transferrin was added to 2 ml of growth medium. Cells were labeled with ^55Fe for ON. Then the medium was removed and cells were washed with PBS. […]

[1] = tested on: aconitase (IRP1 activation); test: Tempol in ECs-Raw 264.7 co-culture, aconitase in-gel activity; type: cell-based; conditions: Tempol 3 mM, direct correlation with incubation time
Method: (§4) Day before co-culture assembly Caco2 cells were cultivated in an oxygen modified incubator (6% O2). Confluent co-cultures of epithelial cells and macrophages were obtained by seeding 2×10^5 cells per cm^2 surface area. Cell culture dishes employed were 10 cm or 6 well. For Caco2-Raw 264.7 co-cultures, Caco2 cells were seeded, after adherence Raw264.7 cells were added accordingly. For Caco2-BMDM co-cultures, on the six day of bone marrow extraction the cells were plated as previously mentioned, and Caco2 cells were added to them accordingly. Co-cultures were cultivated in an oxygen modified incubator (6% O2) at 37° C. and 5% CO2. Co-culture ratios used were 1:1 or 2:1 or 1:2.
Mitochondrial and cytosolic aconitase activities were assayed in parallel in cell lysates after electrophoretic separation as previously described [Tong et al. Cell metabolism 3, 199-210 (2006)]. Protein concentrations were determined using the Bradford assay (BIO-RAD, Hercules, California). Aconitase activity was detected chromogenically by incubating the gels in 100 mM Tris pH 8, 1 mM NADP, 2.5 mM cis-aconitic acid, 1.2 mM 3-(4,5-dimethylthiazol-2-yl)-2,5-diphenyl tetrazolium bromide, 0.3 mM phenazine methosulfate, 5 mM MgCl2 and 5 Units/ml isocitrate dehydrogenase. All chemicals were purchased from Sigma Missouri.

[2] = tested on: epithelial pro-inflammatory markers (Caco2 cells); test: Pre-conditioning of Caco2 cells with tempol, then Raw 264.7 cells and LPS, qRT-PCR; type: cell-based, human; conditions: tempol 3 mM 16 hours pre-conditioning, then Raw 264.7 and LPS 6 hours
Method: Representative SDS-PAGE gels of subcellular fractions, cytosolic nuclear soluble and nuclear chromatic bound fractions (upper). Protein levels were quantified with Image J (lower), values presented as mean±SD. n=4. * DFO 100 Um for 24 hours. C-E. Co-culture of epithelial cells and macrophages with targeted deletion of IRP1 (MΦ Irp1^−/−) didn't restore iron homeostasis in the co-culture upon LPS stimulation. Epithelial cells were co-cultured with BMDM isolated from C57BL/6 mice (MΦ wt) or from IRP^−/− on C57BL/6 background mice (MΦ Irp1^−/−) as described. LPS 200 ng/ml was added for 24 hours. […] Representative immunoblot of FtH. n=8. […] Representative blot of IRP2. n=8. E. Aconitase activities were decreased in epithelial cells and macrophages in EC-MΦ wt and EC-MΦ Irp1^−/− co-cultures. Representative aconitase in-gel assay. n=4. […] Caco2 cells were cultured with tempol (3 mM) for 16 hours, cells were then washed, and Raw 264.7 cells were added. When Raw 264.7 cells were adhered, the excess of cells was washed away and LPS was added for 6 hours. Expression levels were measured by qRT-PCR. n=6.
RNA was extracted using the Trizol reagent (Invitrogen). Cells were harvested directly with Trizol, whereas tissues were first ground in liquid-N2 cooled mortars then incubated with Trizol following manufacturer's instructions. […]

ECs-Raw 264.7 co-culture = test: Tempol in ECs-Raw 264.7 co-culture, pro-inflammatory markers by RTqPCR; type: cell-based, human and mouse; conditions: Tempol 3 mM alone, different times, no LPS
Method: as §4, §3

Row | SMILES | IL-8 mRNA expression levels / inflammatory response in Caco-2 cells alone (Caco-2 cells) | intracellular iron (Caco2 cells; 55Fe CPM in the cells) | extracellular iron (Caco2 cells; 55Fe CPM in the medium) | aconitase activities [1] | expression levels of selected epithelial pro-inflammatory markers [2] | transcription levels of pro-inflammatory markers / inflammatory response (ECs-Raw 264.7 co-culture)
1 | CC(=O)N[C@H](C(=O)O)C(C)(C)SN=O (racemic) [SNAP, S-Nitroso-N-Acetylpenicillamine] | showed an inflammatory response; also recorded: elevated | reduced | increased |  |  | 
2 | CC1(C)CC(O)CC(C)(C)N1[O] [tempol] |  |  |  | decreased | significantly increased | did not elicit any inflammatory response; also recorded: increased trend that was not statistically significant
